Measured values reported in patent US20100260825A1, “Antifolates for the treatment of cardiovascular, inflammatory, neoplastic, autoimmune and related diseases in sublingual dosage units, film strips, or skin patches” (priority 2009, published 2010).

Tests used:
[1] = tested on: CCRF-CEM; assay: Growth inhibition of human tumor cells in culture, CCRF-CEM (Leukemia); format: cell-based
From the text: (§1) The preceding data summarize the ability of compound 2 to inhibit 50% of the growth of selected tumor cells in culture. The values are expressed as Log10 GI50 values all of which are lower than 10^−8 M. In the same table a comparison is made of the respective values of TGI (Total Growth Inhibition) for 2 and methotrexate.

[2] = tested on: MOLT-4; assay: Growth inhibition of human tumor cells in culture, MOLT-4 (Leukemia); format: cell-based
From the text: as §1

[3] = tested on: RPMI 8226; assay: Growth inhibition of human tumor cells in culture, RPMI 8226 (Leukemia); format: cell-based
From the text: as §1

[4] = tested on: SR; assay: Growth inhibition of human tumor cells in culture, SR (Leukemia); format: cell-based
From the text: as §1

[5] = tested on: K562; assay: Growth inhibition of human tumor cells in culture, K562 (Leukemia); format: cell-based
From the text: as §1

[6] = tested on: SF 539; assay: Growth inhibition of human tumor cells in culture, SF 539 (CNS Cancer); format: cell-based
[7] = tested on: Human HCT-8 Colon Xenograft; assay: Antitumor activity in nude mice bearing human HCT-8 colon xenograft; format: in vivo; settings: i.v. push daily × 5
[8] = Toxicity (maximum tolerated dose), i.v. push daily × 5 in nude mice; format: in vivo; settings: i.v. push daily × 5, nude mice bearing HCT-8 xenograft
[9] = Bioavailability / absorption of oral methotrexate in patients; format: in vivo, human; settings: oral dosage form, group of arthritic patients (Example-2)
[10] = tested on: patients with rheumatoid arthritis; assay: Conventional therapy of rheumatoid arthritis with methotrexate in patients; format: in vivo, human
[11] = oral dosage form; cited from earlier work
[12] = cited from earlier work
[13] = tested on: aldehyde oxidase; settings: cited from earlier work
[14] = cited from earlier work; remark: listed apart in the source
[15] = tested on: patients with rheumatoid arthritis; assay: Clinical trial of M-Trex (Mobiletrex) in patients with rheumatoid arthritis, relative to methotrexate; format: in vivo, human; set-up: CRP: unit not given here; settings: for CRP: plasma C-Reactive Protein
From the text: In 2002; Castaneda and M. Gopal Nair conducted the clinical trial of a metabolism-blocked antifolate Mobileterx in patients with rheumatoid arthritis to evaluate its efficacy relative to the well-known antifolate drug methotrexate. In this pilot study [O. Castaneda and M. Gopal Nair. [The J. Rheumatology.

[16] = tested on: MCF-7; assay: Growth inhibition of human tumor cells in culture, MCF-7 (Breast Cancer); format: cell-based
From the text: as §1

[17] = tested on: MCF7-ADR-RES; assay: Growth inhibition of human tumor cells in culture, MCF7-ADR-RES (Breast Cancer); format: cell-based
From the text: as §1

[18] = tested on: selected tumor cells in culture; assay: Growth inhibition of selected tumor cells in culture (summary); format: cell-based, Human; settings: all selected tumor cell lines of the table; read-out: GI50 (inhibit 50% of the growth)
From the text: as §1

[19] = Hypothetical ADMEP and Phase-I-II study of compound 1 (Example-3); format: in vivo, humans; settings: 1.5 mg from the gut to the plasma three times a day (4.5 mg/24 hours)
Method: Based on ADMEP (Absorption, Distribution, Metabolism, Excretion, Pharmacokinetics) studies conducted with analogous compound 1 in animals and humans during pre-clinical investigations and Phase-I-II clinical trials it was determined that an absorption of 1.0 mg of the drug from the gut to plasma three times a day from divided oral dosage units is optimal (3.0 mg/24 hours) in treating the antifolate responsive disease without causing significant toxicity. […] The bioavailability of this drug from the oral dosage unit used was only 10 percent as determined from a Phase-I clinical trial in healthy volunteers. […] The Bioavailability of this new medication was pH dependent due to solubility reasons and therefore it was possible that fluctuations in bioavailability might occur in certain patients as described in example-2. Thus in certain patients taking antacids or drugs such as certain prostaglandin to reduce acid secretion or other unknown factors the pH of the gut might increase to enhance the solubility and thereby increasing the bio-availability to the 15 to 20% range.

CN(Cc1cnc2nc(N)nc(N)c2n1)c1ccc(C(=O)N[C@@H](CCC(=O)O)C(=O)O)cc1 [Methotrexate, reference compound]
TGI (Total Growth Inhibition) [1]: −3.77 | TGI (Total Growth Inhibition) [2]: −3.55 | TGI (Total Growth Inhibition) [3]: −3.66 | TGI (Total Growth Inhibition) [4]: −3.50 | TGI (Total Growth Inhibition) [5]: −3.30 | TGI (Total Growth Inhibition) [6]: −3.66 | MTGI (%) Maximum Tumor Growth Inhibition (% of control) ([7]; 1.0 mg/kg/day (MTD)): 30.0 ± 9.0% | T/C % ([7]; 1.0 mg/kg/day (MTD)): 176.92% | TD (days) Tumor Doubling Time ([7]; 1.0 mg/kg/day (MTD)): 4.6 ± 0.6 days | MTD at 5 days ([8]; mouse, in vivo, iv): 1 mg/kg/day | absorption [9]: 20% | non-responders ([10]; certain patient populations): up to 40% | drug related toxicity ([10]; some patients): significant drug related toxicity including elevation of liver enzymes | bioavailability [11]: 20-80% | adverse effects of overdose ([12]; 60 mg weekly instead of 15 mg weekly, oral tablets, rheumatoid arthritis patient): odynophagia, dysphagia and oesophagitis | adverse effects of dosing error ([12]; weekly dose taken in error daily or on several days each week): severe unwanted effects, including neutropenia, hepatotoxicity and bone marrow suppression | aldehyde oxidase mediated oxidative deactivation [13]: efficiently converted to its corresponding 7-hydroxymethotrexate | solubility [14]: pH dependent

C=C(CC(NC(=O)c1ccc(CCc2ccc3nc(N)nc(N)c3c2)cc1)C(=O)O)C(=O)O (stereo not shown) [Compound 2]
ESR ([15]; 4 wks): 52.7 | HAQ ([15]; 4 wks): 1.8 | Pa. GA ([15]; 4 wks): 6.0 | Ph. GA ([15]; 4 wks): 6.2 | S. Joints ([15]; 4 wks): 5.6 | T. Joints ([15]; 4 wks): 10.2 | Pain ([15]; 4 wks of treatment, rheumatoid arthritis patients): 4.1 | CRP ([15]; 4 wks): 22.1 | ESR ([15]; 8 wks): 32.7 | HAQ ([15]; 8 wks): 1.6 | Pa. GA ([15]; 8 wks): 6.0 | Pain ([15]; 8 wks): 2.8 | Ph. GA ([15]; 8 wks): 5.0 | S. Joints ([15]; 8 wks): 3.5 | T. Joints ([15]; 8 wks): 7.3 | CRP ([15]; 8 wks): 20.7 | ESR ([15]; 12 wks): 38.3 | HAQ ([15]; 12 wks): 1.4 | Pa. GA ([15]; 12 wks): 5.0 | Pain ([15]; 12 wks): 2.2 | Ph. GA ([15]; 12 wks): 4.5 | S. Joints ([15]; 12 wks): 3.0 | T. Joints ([15]; 12 wks): 5.8 | CRP ([15]; 12 wks): 17.7 | ESR ([15]; 16 wks): 38.6 | HAQ ([15]; 16 wks): 1.4 | Pa. GA ([15]; 16 wks): 3.0 | Pain ([15]; 16 wks): 1.8 | Ph. GA ([15]; 16 wks): 3.0 | S. Joints ([15]; 16 wks): 2.9 | T. Joints ([15]; 16 wks): 5.8 | CRP ([15]; 16 wks): 13.6 | plasma concentration of C-Reactive Protein (CRP) ([15]; as the treatment progressed): consistently decreased | TGI (Total Growth Inhibition) [1]: <−8.00 | Log10 GI50 ([1]; Log10 of molar concentration): <−8.00 | TGI (Total Growth Inhibition) [2]: −7.40 | Log10 GI50 ([2]; Log10 of molar concentration): <−8.00 | TGI (Total Growth Inhibition) [3]: −7.44 | Log10 GI50 ([3]; Log10 of molar concentration): <−8.00 | TGI (Total Growth Inhibition) [4]: <−8.00 | Log10 GI50 ([4]; Log10 of molar concentration): <−8.00 | TGI (Total Growth Inhibition) [5]: <−8.00 | Log10 GI50 ([5]; Log10 of molar concentration): <−8.00 | TGI (Total Growth Inhibition) [16]: −6.32 | Log10 GI50 ([16]; Log10 of molar concentration): <−8.00 | TGI (Total Growth Inhibition) [17]: −7.26 | Log10 GI50 ([17]; Log10 of molar concentration): <−8.00 | TGI (Total Growth Inhibition) [6]: −6.3 | Log10 GI50 ([6]; Log10 of molar concentration): <−8.00 | GI50 [18]: < 10 nM | MTGI (%) Maximum Tumor Growth Inhibition (% of control) ([7]; 4.0 mg/kg/day (MTD)): 91.4 ± 2.2% | T/C % ([7]; 4.0 mg/kg/day (MTD)): 623.08% | TD (days) Tumor Doubling Time ([7]; 4.0 mg/kg/day (MTD)): 16.2 ± 3.2 days | Maximum Tolerated dose [8]: M-Trex (4.0 mg/kg/day)

C=C(CC(NC(=O)c1ccc(CCc2ccc3nc(N)nc(N)c3c2)cc1)C(=O)O)C(=O)O (stereo not shown) [Compound 1, 4′-Methylene-5,8,10-trideazaaminopterin]
toxicity [19]: unacceptable GI and bone marrow toxicity
